Read-outs that look alike come from different tables or passages of the source.
Tests used:
HeLa cells = test: Compound screen by flow cytometry: HeLa cell count as surrogate readout of cell viability (z-scoreHeLa); type: cell-based, human; conditions: for cell count rep 1 / cell count rep 2 / cell count rep 3 / z-scoreHeLa mean / z-scoreHeLa rep 1 / z-scoreHeLa rep 2 / z-scoreHeLa rep 3: HeLa cell count; for cell count rep 1 / z-scoreHeLa rep 1: replicate 1; for cell count rep 2 / z-scoreHeLa rep 2: replicate 2; for cell count rep 3 / z-scoreHeLa rep 3: replicate 3; for z-scoreHeLa mean: mean of 3 replicates; on all read-outs here: test concentration or dose not given here
Method in brief: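 The viability surrogate was the count of fixed HeLa cells by flow cytometry, converted to z-scores against DMSO controls with values deviating two-fold excluded. Before counting, cells had been infected with MRSA for 1 h and cleared of extracellular bacteria with gentamicin. They were then exposed overnight to kinase inhibitors in triplicate.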

intracellular MRSA = type: cell-based, Staphylococcus aureus; conditions: for %GFP+ rep 1 / %GFP+ rep 2 / %GFP+ rep 3 / z-scoreMRSA+ mean / z-scoreMRSA+ rep 1 / z-scoreMRSA+ rep 2 / z-scoreMRSA+ rep 3: MRSA-infected HeLa cells; for %GFP+ rep 1 / z-scoreMRSA+ rep 1: replicate 1; for %GFP+ rep 2 / z-scoreMRSA+ rep 2: replicate 2; for %GFP+ rep 3 / z-scoreMRSA+ rep 3: replicate 3; for z-scoreMRSA+ mean: mean of 3 replicates
Method in brief: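 Values are z-scores: GFP-positive HeLa percentage and event count per well against plate statistics, minus the mean DMSO z-score. Wells deviating two-fold from controls were left out of plate means. Infection was at a mean MOI of 6.8, with an overnight compound exposure.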

[1] = Yes/No: effect without cell death
Wherever %GFP+ rep 1 is given: test concentration or dose not given here.
Wherever %GFP+ rep 2 is given: test concentration or dose not given here.
Wherever %GFP+ rep 3 is given: test concentration or dose not given here.
Wherever effect is given: test concentration or dose not given here.
Wherever z-scoreMRSA+ mean is given: test concentration or dose not given here.
Wherever z-scoreMRSA+ rep 1 is given: test concentration or dose not given here.
Wherever z-scoreMRSA+ rep 2 is given: test concentration or dose not given here.
Wherever z-scoreMRSA+ rep 3 is given: test concentration or dose not given here.

Structure (SMILES)	cell count rep 1 (HeLa cells; PKIS compound screen raw data)	cell count rep 2 (HeLa cells; PKIS compound screen raw data)	cell count rep 3 (HeLa cells; PKIS compound screen raw data)	cell death (HeLa cells; Yes/No call from z-scoreHeLa)	z-scoreHeLa mean (HeLa cells; compound screen)	z-scoreHeLa rep 1 (HeLa cells; compound screen)	z-scoreHeLa rep 2 (HeLa cells; compound screen)	z-scoreHeLa rep 3 (HeLa cells; compound screen)	%GFP+ rep 1 (intracellular MRSA; PKIS compound screen raw data)	%GFP+ rep 2 (intracellular MRSA; PKIS compound screen raw data)	%GFP+ rep 3 (intracellular MRSA; PKIS compound screen raw data)	effect (intracellular MRSA; Yes/No call from z-scoreMRSA+)	hit (intracellular MRSA; [1])	z-scoreMRSA+ mean (intracellular MRSA; compound screen)	z-scoreMRSA+ rep 1 (intracellular MRSA; compound screen)	z-scoreMRSA+ rep 2 (intracellular MRSA; compound screen)	z-scoreMRSA+ rep 3 (intracellular MRSA; compound screen)	cell count rep 1 (HeLa cells; PKIS compounds raw data)	cell count rep 2 (HeLa cells; PKIS compounds raw data)	cell count rep 3 (HeLa cells; PKIS compounds raw data)	further results
CN1CCN(Cc2ccc(NC(=O)Nc3ccc(N(C)c4ccnc(Nc5ccc(CS(C)(=O)=O)cc5)n4)cc3)cc2)CC1 [GW827654A]	30631	31592	23281	No	0.67	0.07	1.08	0.85	24.8%	24.9%	25.0%	No	No	1.38	1.61	1.50	1.03				
CN(c1ccc(NC(=O)Nc2cccc(Cl)c2)cc1)c1ccnc(N)n1 [GW830707A]	2862	2838	4346	No	-0.92	-1.07	-1.13	-0.56	21.9%	21.1%	22.8%	No	No	-0.32	-0.79	-0.37	0.18				
Cc1cccc(-c2nc(Nc3ccncc3)c3ccccc3n2)n1 [GW855857X]	3133	3003	4517	No	-0.78	-0.88	-1.00	-0.46	26.0%	24.5%	21.6%	No	No	0.15	0.17	0.46	-0.18				
CC(C)(C)c1ccc2nccc(Nc3cccc(O)c3)c2c1 [GW856795X]	35017	26624	35940						14.7%	17.0%	17.5%										z-scoreHeLa mean (HeLa cells; PKIS compound screen): 0.00181; z-scoreHeLa rep 1 (HeLa cells; PKIS compound screen): 2.26; z-scoreHeLa rep 2 (HeLa cells; PKIS compound screen): -1.52; z-scoreHeLa rep 3 (HeLa cells; PKIS compound screen): -0.73; cell death (HeLa cells; PKIS compound screen, Yes/No call on z-scoreHeLa): No; z-scoreMRSA+ mean (intracellular MRSA; PKIS compound screen): -0.72; z-scoreMRSA+ rep 1 (intracellular MRSA; PKIS compound screen): -1.00; z-scoreMRSA+ rep 2 (intracellular MRSA; PKIS compound screen): -0.46; z-scoreMRSA+ rep 3 (intracellular MRSA; PKIS compound screen): -0.70; hit (intracellular MRSA; PKIS compound screen, Yes/No call (effect without cell death)): No; effect (intracellular MRSA; PKIS compound screen, Yes/No call on z-scoreMRSA+): No
Nc1ncc(-c2cccc(S(N)(=O)=O)c2)c2scc(-c3ccc(F)c(Cl)c3)c12 [GW856804X]				No	0.73	-0.49	2.25	0.43				No	No	-0.70	-0.60	-0.40	-1.09	4238	7246	7870	%GFP+ rep 1 (intracellular MRSA; PKIS compounds raw data): 11.3%; %GFP+ rep 2 (intracellular MRSA; PKIS compounds raw data): 12.3%; %GFP+ rep 3 (intracellular MRSA; PKIS compounds raw data): 12.2%
Cc1cccc(-c2nc(Nc3ccc4[nH]ncc4c3)c3ccccc3n2)n1 [GW857175X]				No	-2.21	-2.48	-2.27	-1.88				No	No	-0.54	-0.0227	-0.67	-0.94	2034	1268	3042	%GFP+ rep 1 (intracellular MRSA; PKIS compounds raw data): 13.1%; %GFP+ rep 2 (intracellular MRSA; PKIS compounds raw data): 11.5%; %GFP+ rep 3 (intracellular MRSA; PKIS compounds raw data): 12.7%
